How the values were obtained:
velvetleaf [1] = assay: Test A pre-/postemergence herbicide test; assay type: in vivo, Abutilon theophrasti
Procedure, shortened: (§1)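 Seeds sown in sandy loam received a preemergence directed soil spray of compound in non-phytotoxic solvent with surfactant; postemergence plants (2–10 cm, one- to two-leaf stage) were sprayed to runoff at the same time. After ~10 days in greenhouse, injury was rated visually versus untreated controls (0 = no effect, 100 = complete control).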

barnyardgrass [2] = assay: Test A pre-/postemergence herbicide test; assay type: in vivo, Echinochloa crus-galli
Procedure, shortened: as §1

barnyardgrass [3] = assay: Test B pre-/postemergence herbicide test; assay type: in vivo, Echinochloa crus-galli; settings: for Barnyardgrass plant response rating: postemergence
Procedure, shortened: (§2)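 Seeds were planted and treated preemergence with compounds formulated in a non-phytotoxic solvent mixture containing surfactant, while plants at the 1- to 4-leaf stage (2 to 18 cm) received postemergence sprays. Flooded paddy plants were grown to the 2-leaf stage. After 13 to 15 days in a greenhouse, injury was visually rated 0–100 against untreated controls.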

rice [4] = assay: Test B flooded paddy test; assay type: in vivo, Oryza sativa; settings: 1000 g ai/ha, scale 0 to 100 (0 no effect, 100 complete control)
Procedure, shortened: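 Treated at 2-leaf (paddy) or 1–4-leaf, 2–18 cm (postemergence); greenhouse 13–15 d; visual score vs control, 0 none to 100 complete control; dash = not tested.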

blackgrass = assay: Test B postemergence herbicide test; assay type: in vivo, Alopecurus myosuroides; settings: postemergence
Procedure, shortened: (§3)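 Postemergence plants were sprayed with formulated test chemicals at 2 to 18 cm height (1- to 4-leaf stage); paddy species were grown to the 2-leaf stage. After 13 to 15 days in a greenhouse, injury was rated visually against untreated controls on a 0–100 scale (0 = no effect, 100 = complete control).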

corn = assay: Test B pre-/postemergence herbicide test; assay type: in vivo, Zea mays; settings: for Corn plant response rating: postemergence
Procedure, shortened: (§4)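 Herbicidal effect was judged by eye on a 0–100 scale after plants stood 13 to 15 days in the greenhouse following pre- or postemergence treatment with surfactant-containing formulations.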

large crabgrass [5] = assay: Test B pre-/postemergence herbicide test; assay type: in vivo, Digitaria sanguinalis; settings: for Crabgrass, Large plant response rating: postemergence
Procedure, shortened: as §4

giant foxtail [6] = assay: Test B pre-/postemergence herbicide test; assay type: in vivo, Setaria faberi; settings: for Foxtail, Giant plant response rating: postemergence
Procedure, shortened: as §4

wheat = assay: Test B postemergence herbicide test; assay type: in vivo, Triticum aestivum; set-up: key to Wheat plant response rating: 0 = no effect, 100 = complete control; settings: postemergence
Procedure, shortened: (§5)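 Greenhouse test; postemergence application to plants at 1–4 leaves (2–18 cm); paddy species at 2 leaves; evaluated visually vs controls at 13–15 days; scale 0–100 (100 = complete control).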

barnyardgrass [7] = assay: Test B flooded paddy test; assay type: in vivo, Echinochloa crus-galli; settings: 1000 g ai/ha, scale 0 to 100 (0 no effect, 100 complete control)
Procedure, shortened: as §3

morningglory [8] = assay: Test A pre-/postemergence herbicide test; assay type: in vivo, Ipomoea spp.
Procedure, shortened: as §1

giant foxtail [9] = assay: Test A pre-/postemergence herbicide test; assay type: in vivo, Setaria faberi
Procedure, shortened: as §1

lambsquarters = assay: Test B pre-/postemergence herbicide test; assay type: in vivo, Chenopodium album; settings: for Lambsquarters plant response rating: postemergence
Procedure, shortened: as §4

large crabgrass [10] = assay: Test A pre-/postemergence herbicide test; assay type: in vivo, Digitaria sanguinalis
Procedure, shortened: as §1

[11] = test system: small flower umbrella sedge; assay: Test B flooded paddy test; assay type: in vivo, Cyperus difformis; settings: 1000 g ai/ha, scale 0 to 100 (0 no effect, 100 complete control)
Procedure, shortened: as §3

ducksalad = assay: Test B flooded paddy test; assay type: in vivo, Heteranthera limosa; settings: 1000 g ai/ha, scale 0 to 100 (0 no effect, 100 complete control)
Procedure, shortened: as §3

cocklebur = assay: Test B pre-/postemergence herbicide test; assay type: in vivo, Xanthium strumarium; settings: for Cocklebur plant response rating: postemergence
Procedure, shortened: as §2

wild oat = assay: Test B postemergence herbicide test; assay type: in vivo, Avena fatua; settings: postemergence
Procedure, shortened: as §5

velvetleaf [12] = assay: Test B pre-/postemergence herbicide test; assay type: in vivo, Abutilon theophrasti; settings: for Velvetleaf plant response rating: postemergence
Procedure, shortened: as §4

rice [13] = assay: Test B pre-/postemergence herbicide test; assay type: in vivo, Oryza sativa; settings: 0 = no effect, 100 = complete control, preemergence
Procedure, shortened: as §4

pigweed = assay: Test B pre-/postemergence herbicide test; assay type: in vivo, Amaranthus retroflexus; settings: for Pigweed plant response rating: postemergence
Procedure, shortened: as §4

redroot pigweed = assay: Test A pre-/postemergence herbicide test; assay type: in vivo, Amaranthus retroflexus
Procedure, shortened: as §1

morningglory [14] = assay: Test B pre-/postemergence herbicide test; assay type: in vivo, Ipomoea coccinea; settings: for Morningglory plant response rating: postemergence
Procedure, shortened: as §2

Surinam grass = assay: Test B pre-/postemergence herbicide test; assay type: in vivo, Urochloa decumbens; settings: for Surinam Grass plant response rating: postemergence
Procedure, shortened: as §4

[15] = Postemergence, 500 g ai/ha, 0 to 100 scale, 0 no effect, 100 complete control
[16] = Postemergence, 2000 g ai/ha, 0 to 100 scale, 0 no effect, 100 complete control
[17] = Preemergence, 2000 g ai/ha, visual rating, 0 to 100 scale (0 no effect, 100 complete control)
[18] = preemergence, 500 g ai/ha, visual injury, 0 to 100 scale (0 no effect, 100 complete control)
[19] = 125 g ai/ha, 0 = no effect, 100 = complete control, preemergence
[20] = 500 g ai/ha, visual rating, 0 = no effect, 100 = complete control, preemergence
[21] = 125 g ai/ha, visual rating, scale 0 (no effect) to 100 (complete control)
[22] = 500 g ai/ha, scale 0 to 100, 0 is no effect, 100 is complete control

## CCn1nc(C(C)(C)C)cc1C(=O)Nc1ccnc(C(=O)NCCF)c1 [Compound 284]
Velvetleaf [1]; [15]
  Velvetleaf plant response rating: 30
Velvetleaf [1]; [16]
  Plant response rating, Velvetleaf: 35
Velvetleaf [1]; [17]
  Velvetleaf plant response rating: 40
Velvetleaf [1]; [18]
  Velvetleaf plant response rating: 10
Barnyardgrass [2]; [15]
  Barnyardgrass plant response rating: 30
Barnyardgrass [2]; [16]
  Plant response rating, Barnyardgrass: 60
Barnyardgrass [2]; [17]
  Barnyardgrass plant response rating: 85
Barnyardgrass [2]; [18]
  Barnyardgrass plant response rating: 10
Barnyardgrass [3]; [19]
  Barnyardgrass plant response rating (0 to 100 scale): 0
Barnyardgrass [3]; [20]
  Plant response rating, Barnyardgrass: 80
Barnyardgrass [3]; [21]
  Barnyardgrass plant response rating: 0
Barnyardgrass [3]; [22]
  Barnyardgrass plant response rating: 0
Rice [4]
  Rice plant response rating: 10
blackgrass; [21]
  Blackgrass plant response rating: 20
blackgrass; [22]
  Blackgrass plant response rating: 40
corn; [19]
  Corn plant response rating (0 to 100 scale): 0
corn; [20]
  Plant response rating, Corn: 0
corn; [21]
  Corn plant response rating: 0
corn; [22]
  Corn plant response rating: 10
Large crabgrass [5]; [19]
  Crabgrass, Large plant response rating (0 to 100 scale): 0
Large crabgrass [5]; [20]
  Plant response rating, Crabgrass, Large: 90
Large crabgrass [5]; [21]
  Crabgrass, Large plant response rating: 0
Large crabgrass [5]; [22]
  Crabgrass, Large plant response rating: 10
Giant foxtail [6]; [19]
  Foxtail, Giant plant response rating (0 to 100 scale): 0
Giant foxtail [6]; [20]
  Plant response rating, Foxtail, Giant: 10
Giant foxtail [6]; [21]
  Foxtail, Giant plant response rating: 0
Giant foxtail [6]; [22]
  Foxtail, Giant plant response rating: 0
wheat; [21]
  Wheat plant response rating: 20
wheat; [22]
  Wheat plant response rating: 30
Barnyardgrass [7]
  Barnyardgrass plant response rating: 30
Morningglory [8]; [15]
  Morningglory plant response rating: 10
Morningglory [8]; [16]
  Plant response rating, Morningglory: 15
Morningglory [8]; [17]
  Morningglory plant response rating: 5
Morningglory [8]; [18]
  Morningglory plant response rating: 0
Giant foxtail [9]; [15]
  Foxtail, Giant plant response rating: 20
Giant foxtail [9]; [16]
  Plant response rating, Foxtail, Giant: 35
Giant foxtail [9]; [17]
  Foxtail, Giant plant response rating: 55
Giant foxtail [9]; [18]
  Foxtail, Giant plant response rating: 20
lambsquarters; [19]
  Lambsquarters plant response rating (0 to 100 scale): 90
lambsquarters; [20]
  Plant response rating, Lambsquarters: 100
lambsquarters; [21]
  Lambsquarters plant response rating: 50
lambsquarters; [22]
  Lambsquarters plant response rating: 50
Large crabgrass [10]; [15]
  Crabgrass, Large plant response rating: 20
Large crabgrass [10]; [16]
  Plant response rating, Crabgrass, Large: 20
Large crabgrass [10]; [17]
  Crabgrass, Large plant response rating: 80
Large crabgrass [10]; [18]
  Crabgrass, Large plant response rating: 15
[11]
  Sedge, Umbrella plant response rating: 0
ducksalad
  Ducksalad plant response rating: 70
cocklebur; [19]
  Cocklebur plant response rating (0 to 100 scale): 0
cocklebur; [20]
  Plant response rating, Cocklebur: 0
cocklebur; [21]
  Cocklebur plant response rating: 0
cocklebur; [22]
  Cocklebur plant response rating: 0
Wild oat; [21]
  Oat, Wild plant response rating: 10
Wild oat; [22]
  Oat, Wild plant response rating: 30
Velvetleaf [12]; [19]
  Velvetleaf plant response rating (0 to 100 scale): 0
Velvetleaf [12]; [20]
  Plant response rating, Velvetleaf: 60
Velvetleaf [12]; [21]
  Velvetleaf plant response rating: 0
Velvetleaf [12]; [22]
  Velvetleaf plant response rating: 0
Rice [13]; 125 g ai/ha
  Rice plant response rating (0 to 100 scale): 0
Rice [13]; 500 g ai/ha, visual rating
  Plant response rating, Rice: 20
pigweed; [19]
  Pigweed plant response rating (0 to 100 scale): 90
pigweed; [20]
  Plant response rating, Pigweed: 100
pigweed; [21]
  Pigweed plant response rating: 60
pigweed; [22]
  Pigweed plant response rating: 70
Redroot pigweed; [15]
  Pigweed plant response rating: 95
Redroot pigweed; [16]
  Plant response rating, Pigweed: 100
Redroot pigweed; [17]
  Pigweed plant response rating: 100
Redroot pigweed; [18]
  Pigweed plant response rating: 85
Morningglory [14]; [19]
  Morningglory plant response rating (0 to 100 scale): 0
Morningglory [14]; [20]
  Plant response rating, Morningglory: 0
Morningglory [14]; [21]
  Morningglory plant response rating: 0
Morningglory [14]; [22]
  Morningglory plant response rating: 0
Surinam grass; [19]
  Surinam Grass plant response rating (0 to 100 scale): 0
Surinam grass; [20]
  Plant response rating, Surinam Grass: 10
Surinam grass; [21]
  Surinam Grass plant response rating: 0
Surinam grass; [22]
  Surinam Grass plant response rating: 20

Reference: patent US20060069132A1, “Azolecarboxamide herbicides” (priority 2004, published 2006)
